We go through one compound from patent US20130122024A1, “NEW BINDER-DRUG CONJUGATES (ADCS) AND USE THEREOF” (Bayer Intellectual Property GmbH, priority 2011, published 2013).

One data set has as its system tubulin. In words: Fluorescence-based microtubule (tubulin) polymerization assay. Type of data set: biochemical. On the procedure:
Tubulin polymerization was investigated using the “Fluorescence-based Microtubule Polymerisation Assay Kit” from Cytoskeleton (Denver, Colo., USA; order number: BK011). With this assay, GTP is added to unpolymerized tubulin, allowing polymerization to take place spontaneously. The assay is based on the binding of the fluorophore 4′,6-di-amidino-2-phenylindole (DAPI) to tubulin. Free and bound DAPI can be differentiated on the basis of different emission spectra.
[…] In addition to the buffer control, paclitaxel, with a polymerization-increasing effect, and vinblastin, with a polymerization inhibiting effect, were run additionally as assay controls. Measurement was carried out using 96-well plates with a half base area. The kinetics of the tubulin polymerization were monitored in a Fluorimeter at 37° C. for 1 hour. The excitation wavelength was 355 nm, and emission was monitored at 460 nm. For the region of linear increase within the first 10 minutes, a calculation was made of the change in fluorescence per minute (ΔF/min), which represents the polymerization rate of the microtubuli. The potency of the test substances was quantified on the basis of their respective reduction of the polymerization rate.
The reduction in the tubulin polymerization rate occurs in dependence on the concentration of the test substance added.

The nature of data set [1]: Pharmacokinetics in the HT29 tumour model, non-transfected tumours. In kind it is in vivo. The settings on record: after i.v. 16 mg/kg of Example 5; animals with nontransfected tumours. On the procedure:
Following intravenous administration of 16 mg/kg of Example 5, the plasma concentrations and tumour concentrations of Example 5 and also of potential metabolites such as, for example, of Example 64 were measured. […] In contrast, the AUC in the tumour in the nontransfected animals was about 8 times lower than in the transfected animals.
The measurement of the compound from Example 64 in plasma and tumour took place following precipitation of the proteins with methanol, by means of high-pressure liquid chromatography (HPLC) coupled to a tandem mass spectrometer (MS).
For the processing of 100 μL of plasma, it was admixed with 400 μL of methanol and 10 μL of internal standard (ISTD, 50 ng/mL in methanol) and shaken for 10 seconds. After centrifuging for 5 minutes at 16 000 g, 250 μL of supernatant were transferred to an autosampler vial, which was made up with 250 μL of ammonium acetate buffer (AAC, 10 mM, pH 6.8) and shaken again.
For the processing of a tumour, it was admixed with 4 times the amount of methanol. […] After again being shaken, the tumour sample was ready for measurement.
The measurement of both matrix samples took place, lastly, on the HPLC-coupled, atmospheric pressure ionization/tandem mass spectrometer by means of a Turbo Ion Spray Interface (TISP) on an API4000 instrument from SCIEX. The m/z transitions measured were as follows: […]

The subject of a further data set is Caco-2 cells. Kind of data set: Caco-2 flux assay for cell permeability. Type of data set: in vitro ADME. The settings on record: 2 hours, B to A. The procedure: The cell permeability of a substance can be investigated by means of in vitro testing in a flux assay using Caco-2 cells [M. D. Troutman and D. R. Thakker, Pharm. Res. 20 (8), 1210-1224 (2003)]. For this purpose, the cells were cultured for 15-16 days on 24-well filter plates. For the determination of permeation, the respective working example was applied in a HEPES buffer to the cells either apically (A) or basally (B) and incubated for 2 hours. After 0 hours and after 2 hours, samples were taken from the cis and trans compartments. The samples were separated by HPLC (Agilent 1200, Böblingen, Germany) using reverse phase columns. The HPLC system was coupled via a Turbo Ion Spray Interface to a Triple Quadropol mass spectrometer API 4000 (Applied Biosystems Applera, Darmstadt, Germany). The permeability was evaluated on the basis of a Papp value, which was calculated using the formula published by Schwab et al. [D. Schwab et al., J. Med. Chem. 46, 1716-1725 (2003)].
In general terms: Passage across Caco-2 layers is used to estimate intestinal permeability.

For `CC[C@H](C)[C@@H]([C@@H](CC(=O)N1CCC[C@H]1[C@H](OC)[C@@H](C)C(=O)N[C@@]1(C(=O)N2CCCCO2)C[C@@H]1c1ccccc1)OC)N(C)C(=O)[C@@H](NC(=O)[C@H](C(C)C)N(C)CCCC(=O)NNC(=O)CCCCCN1C(=O)CC(SC[C@H](N)C(=O)O)C1=O)C(C)C` (stereo partly drawn) [Example 64, N-(4-{2-[6-(3-{[(2R)-2-Amino-2-carboxyethyl]sulphanyl}-2,5-dioxopyrrolidin-1-yl)hexanoyl]hydrazino}-4-oxobutyl)-N-methyl-L-valyl-N-[(3R,4S,5S)-3-methoxy-1-{(2S)-2-[(1R,2R)-1-methoxy-2-methyl-3-{[(1S,2R)-1-(1,2-oxazinan-2-ylcarbonyl)-2-phenylcyclopropyl]amino}-3-oxopropyl]pyrrolidin-1-yl}-5-methyl-1-oxoheptan-4-yl]-N-methyl-L-valinamide], in the data set on tubulin (1 μM), the “reduction in the polymerization rate” value stood at 41%. Besides, the “Tubulin polymerization in the presence of toxophore in [%]. Tubulin polymerization rate at 1 μM MMAF set at 100%” value with tubulin (concentration of toxophore 1 μM) is on record as 120%. Moreover, the exposure in plasma entry in data set [1] was “identical to the exposure in plasma in animals with transfected tumours”. For the same compound, the “Papp (B-A)” value with Caco-2 cells was determined as 0.25 ×10⁻⁶ cm/s.
